Experimental data published in patent publication US10441569B2, “Self-emulsifying formulations of DIM-related indoles” (BioResponse, L.L.C., priority 2015, dated 2019).
≈ marks a conversion by molar mass, not a printed value. Read-outs that look alike come from different tables or passages of the source.

Legend:
[1] = Experimental log P of DIM (octanol / aqueous shake-flask, HPLC); type: physicochemical; conditions: octanol / aqueous media (separate shake-flask solubilities); from octanol and aqueous shake-flask results; read-out: Experimental log P Determination
Experimental: (§1) In directly determining the solubility of DIM the shake-flask method for determination of maximum solubility in aqueous media was utilized. The solubility was determined as described by Lindenberg et al., 2004, Eur J Pharm Biopharm. 58(2):265-78. The drug was weighed in excess of its expected solubility in Uniprep® vials equipped with a 0.45-μm membrane filter, and 2 ml of Milli-Q water, 0.01N HCL (pH 2.0), or phosphate buffer (pH 7.4) (USP) was added into the vial. The vials were incubated at 37±0.5° C. while shaking on a “Polymax 1040” orbital shaker (Heidolph, Schwabach). The samples of the solutions were taken after 4 or 24 hours by pressing the Uniprep® plunger down, diluted as appropriate, and the concentration of DIM was analyzed by HPLC, as described below. The measurements were done in triplicate. The maximum concentration of DIM in aqueous media used in this study was 0.6 μg/ml. The solubility or stability was not influenced by pH and was similar in water, 0.01N HCl or PBS (pH 7.4).

[2] = Solubility of DIM in individual excipients (incremental addition, microscopic observation); type: physicochemical
Experimental: The first step in this development process was the testing of a variety of excipients chosen as potentially active in solubilizing DIM. […] The method involved weighing of approximately 2 grams of each of the liquid excipients into a small vial. Subsequently, a small amount of DIM was added and the mixture was shaken.
The method involved weighing of approximately 2 grams of each of the liquid excipients into a small vial. Subsequently, a small amount of DIM was added and the mixture was shaken. […] Continued testing of acceptable oil solvents for, e.g., nutritional supplement, self-emulsifying formulations using DIM as a representative DIM-related indole active ingredient included testing of the following oils: […]

[3] = Intra-individual comparison of DIM plasma levels, one adult subject; type: in vivo; conditions: human, same adult subject, 300 mg oral
Experimental: Repeated single-use of 300 mg oral doses of DIM in different DIM formulations was conducted. Absorption studies using the same adult subject on separate test days were performed. This allowed comparison of DIM absorption and Plasma Pharmacokinetics through comparison of DIM plasma levels measured following administration of unformulated crystalline DIM, following administration of absorption-enhanced, microencapsulated DIM (BR-DIM), following administration of DIM SMEDDS Formulation “D” without Poloxamer 124, and following administration of DIM SMEDDS Formulation “G” with Poloxamer 124, to the human subject. The same oral administration and timed plasma sampling protocol was used on different study days, separated by at least 2 weeks. Plasma level results for each time point are presented in the following chart.

[4] = Shake-flask determination of maximum solubility of DIM; type: physicochemical; conditions: for solubility: 37 °C, thermodynamic from solid, read-out: maximal solubility
Experimental: as §1

[5] = Particle size after dispersion and spontaneous emulsion formation in water (laser light scattering); type: physicochemical; conditions: Malvern Mastersizer, DIM as supplied by BioResponse
Experimental: Each of the formulations were tested by dispersing approximately 1 gram of the candidate formulation in 200 mL of deionized water at approximately 37° C. with slow stirring of a magnetic spin bar in a 1 L beaker. Within five minutes of the addition, sufficient mixture was added to a Malvern Mastersizer dynamic laser light scattering instrument to satisfy the obscuration of the laser beams needed for measurement.
Some of the formulations were formulated with and without Soluplus and with and without phosphatidyl choline-rich isolates from lecithin. The formulations were tested by dispersing approximately 1 gram of the candidate formulation in 200 mL of deionized water at approximately 37° C. with slow stirring of a magnetic spin bar in a 1 L beaker. Within five minutes of the addition, sufficient mixture was added to a Malvern Mastersizer dynamic laser light scattering instrument to satisfy the obscuration of the laser beams needed for measurement.
The dispersions of Formulations R and T were tested for particle size by laser diffraction following dispersion and spontaneous emulsion formation in water. […] The particle size determined is expressed as diameter in microns (μ) in the following chart, and comparison is made to other nutritional and pharmaceutical formulations described herein: […]

c1ccc2c(Cc3c[nH]c4ccccc34)c[nH]c2c1 [DIM, 3,3′-diindolylmethane]
logP [1]: 3.58 | DIM Solubility % ([2]; in Black Cumin oil): 2% | DIM Solubility ([2]; in Capryol 90 (Propylene glycol monocaprylate)): 7% | DIM Solubility ([2]; in Capryol PGMC (Propylene glycol monocaprylate)): 8% | DIM Solubility ([2]; in Crodasol HS-HP (monoesters and diesters of 12-hydroxystearic acid and macrogols)): 14% | DIM Solubility ([2]; in Gelucire 44/14 (Lauroyl polyoxyl-32 glycerides)): 19% | DIM Solubility ([2]; in Labrafac AC WL1349 (Medium-chain triglycerides)): 3% | DIM Solubility ([2]; in Labrafac PG (Propylene glycol di-caprylate)): 4.5%^ | DIM Solubility ([2]; in Labrafil M1944CS (Oleoyl polyoxyl-6 glycerides)): 5% | DIM Solubility ([2]; in Labrasol ALF (Caprylocaproyl polyoxyl-8 glycerides)): 25% | DIM Solubility ([2]; in Lauroylglycol 90 (Propylene glycol monolaurate)): 3% | DIM Solubility ([2]; in Maisine 35-1 (Glyceryl monolinoleate)): 2% | DIM Solubility ([2]; in Peceol (Glycerol monooleate)): 2% | DIM Solubility ([2]; in Peppermint oil): 4% | DIM Solubility ([2]; in Plurol Oleique (Glycerol mono/di-oleate)): 5% | DIM Solubility ([2]; in Polysorbate 80): 12% | DIM Solubility ([2]; in Propylene glycol): 2% | DIM Solubility % ([2]; in Rosemary Oil): 6% | DIM Solubility ([2]; in Transcutol (Diethylene glycol monoethyl ether)): >25% | ability of oil to dissolve DIM ([2]; olive oil or sunflower oil): very low ability to dissolve DIM | AUC [3]: 17 ng·h/mL | Cmax [3]: 6.8 ng/mL | concentration at 0 h ([3]; time 0 hr, read-out: Plasma level of DIM): 0 ng/mL | concentration at 1 h ([3]; time 1 hr, read-out: Plasma level of DIM): 4.5 ng/mL | concentration at 2 h ([3]; time 2 hr, read-out: Plasma level of DIM): 6.8 ng/mL | concentration at 3 h ([3]; time 3 hr, read-out: Plasma level of DIM): 4.7 ng/mL | concentration at 4 h ([3]; time 4 hr, read-out: Plasma level of DIM): 2.6 ng/mL | solubility ([4]; 0.01N HCl, simulated gastric fluid, aqueous acid environment of pH 2): 0.6 µg/mL (≈ 2.44 µM) | solubility ([4]; in water): 0.7 µg/mL (≈ 2.84 µM) | concentration of DIM in Octanol ([4]; Octanol, shake-flask method, HPLC): 2,300 μg/ml | maximum concentration of DIM in aqueous media ([4]; water, 0.01N HCl (pH 2.0) or phosphate buffer (pH 7.4), 37°C): 0.6 µg/mL | Particle Size Diameter after Dispersion in Water (nm) [5]: 3,010^1^ nm
